Data taken from paper PMC7555119, “Characterization of Novel Synthetic Polyphenols: Validation of Antioxidant and Vasculoprotective Activities” (Antioxidants, 2020).
≈ marks a conversion by molar mass, not a printed value. Where “and” joins values, the source holds several entries; their conditions need not be identical. Equal values may be shown once. Read-outs that look alike come from different tables or passages of the source.

Experiments:
[1] = Oxygen radical absorbance capacity (ORAC) assay
Protocol: The ORAC assay was performed following Ou et al., as modified by Garcés-Rimón et al.. All samples and reagents were dissolved in phosphate buffer (75 mM; pH 7.4). […] The fluorescence was recorded at 40 °C every 55 s for 95 min using a fluorimeter (SpectraMax M2; Molecular Devices, California, USA), with excitation and emission wavelengths of 480 and 520 nm, respectively. All samples were tested in triplicate. ORAC values were expressed as μmol of Trolox equivalents (TE)/μmol of pure compound.

[2] = ABTS radical cation scavenging assay
Protocol: The 2,2′-azino-bis (3-ethylbenzothiazoline-6-sulfonic acid) diammonium salt (ABTS) assay was performed according to Re et al. and modified by Oki et al. for its use in microplates. Samples were diluted in methanol. An ABTS^•+ stock solution was prepared by adding 44 μL of potassium persulfate (140 mmol/L) to a 2.5 mL ABTS^•+ aqueous solution (7 mmol/L). The working solution of the radical ABTS^+ was prepared by diluting the stock solution 1:75 (v/v) in a sodium phosphate buffer (5 mmol/L, pH 7.4) to obtain an absorbance value of 0.7±0.02 at 734 nm. Samples (30 μL) were added to 270 μL of the working solution of ABTS^•+ in a microplate. Absorbance was measured at 734 nm and 30 °C for 20 min, every 5 min in a Synergy HT plate spectrophotometer (Biotek Instruments, Winoosky, VT, USA). A calibration curve was made with Trolox (20–250 μM). All samples were analyzed in triplicate. Results were expressed in μmol TE/μmol of pure compound, as for the ORAC assays.

[3] = DPPH free radical scavenging assay (RSA); details: for RSA percentage: highest concentration 2 mM, 10 min; for concentration down to which RSA ability is maintained independently of time: 10 min to 2 h; for RSA capacity fold higher compared to resveratrol: after 10 min, from IC50
Protocol: For the 2,2′-diphenylpicrylhydrazyl (DPPH) assay, antioxidant compounds were dissolved in ethanol with a stock concentration of 4 mM and stirred for 24 h. DPPH (Alfa Aesar) was also dissolved in ethanol at 0.127 mM. Different compound solutions were prepared by serial dilutions of each stock solution ([…]). […] Amounts of 80 µL of each solution and 80 µL of DPPH were added in a 96-well plate. The absorbance was measured at different times (10, 20 and 30 min and 1 and 2 h) by a Multi-Detection Microplate Reader Synergy HT (λMAX = 515 nm). Radical scavenging activity (RSA, %) was calculated using Equation (1) (1) RSA(%)=ADPPH−AEXTRACT/ADPPH·100 where AEXTRACT and ADPPH correspond to the absorbance of DPPH with and without the extracts, respectively. Eight replicates were used for each compound and results were expressed as mean value ± standard deviation. The RSA half-maximal inhibitory concentration (IC50) values were calculated from the relationship curve of RSA versus concentrations by a non-linear fit using the software GraphPad Prism 7.

[4] = Stability in aqueous media (H2O/acetonitrile 80:20, HPLC-MS); assay type: physicochemical; details: for stability in aqueous media: H2O/acetonitrile (80:20%), room temperature, checked for 60 days; for Aqueous Stability (%): remaining pure compound (HPLC) after two months at room temperature in aqueous solution (+20% acetonitrile)
Description: The solutions were checked by HPLC-MS at regular intervals of time for 60 days. […] The rest of the compounds suffered progressive degradation, with complete disappearance from the solution after 10 or 20 days. The most unstable polyphenol derivatives were 4 and 10 (Figure S1), having both two p-dihydroxy substitutions in the phenyl rings, which points to the rapid and easy oxidation to the p-hydroquinone. From the four compounds with three phenyl rings, only one was stable in aqueous solution (17).

[5] = system: human dermal fibroblasts (HDF); assay: Cell viability, AlamarBlue assay; assay type: cell-based; details: for IC50: 24 h, AlamarBlue, non-linear fit
Protocol: Cytotoxicity of selected antioxidant compounds was assessed using human dermal fibroblasts (HDF, Innoprot, P10856) and an AlamarBlue assay. Human fibroblasts were grown and maintained using Dulbecco’s Modified Eagle Medium high glucose (DMEM, Sigma Aldrich, D6171), supplemented with 10% Fetal Bovine Serum (FBS), 2% L-glutamine and 1% penicillin/streptomycin. Cells were incubated at 37 °C, 95% relative humidity and 5% CO2. Additionally, DMEM-high glucose, HEPES, no phenol red (Gibco, 2106329) was used to prepare the AlamarBlue solution. Stock solutions of the antioxidant compounds 3, 8, 15 and 17 were prepared in dimethyl sulfoxide (DMSO). Compound 7 was not soluble enough in DMSO to obtain a cell viability IC50 value. Serial dilutions of the antioxidant compounds were prepared using the previously mentioned stock solutions and DMEM. Final DMSO concentration was maintained lower than 1% v/v in the cell culture experiments. HDF were seeded at 9 × 10^4 cells/well in a 96-well plate and incubated for 24 h. The medium was replaced by the corresponding antioxidant solutions and incubated for an additional 24 h. Then, compounds were removed, cells were washed with Dulbecco’s Phosphate Buffered Saline (PBS, Sigma Aldrich) and treated with a 10% v/v AlamarBlue (Invitrogen) solution prepared in DMEM without phenol red. After 3 h of incubation, absorbance was monitored at 570 nm by a Multi-Detection Microplate Reader Synergy HT. Cells treated with DMEM without any antioxidant compound were used as the 100% viability control. Eight replicates were used for each antioxidant solution. IC50 values were obtained by a non-linear fit using the software GraphPad Prism 7.

[6] = system: Saccharomyces cerevisiae strain BY4741; assay: In vivo antioxidant capacity in stressed yeasts (growth recovery, survivors); assay type: cell-based
Protocol: Saccharomyces cerevisiae haploid strain BY4741 was used as described previously. Briefly, 20 μL of glycerol stock culture was revived in 5ml of YPD medium (1% yeast extract, 2% bacteriological peptone and 2% dextrose) at 28 °C, with shaking (210 rpm). Fifty microliters of 20-h-old culture was used to inoculate fresh 5ml YPD (control medium) or 5 mL of oxidative stress medium (YPOxD: YPOxD; 1% yeast extract, 2% bacteriological peptone, 1% dextrose and 3% H2O2). Stress (and control) was conducted during 16h at 28 °C, with shaking (220 rpm).
Growth rate was determined from growth kinetics using the BioScreen C plate-reader system (OY Growth Curves Ab Ldt., Helsinki, Finland). Stressed yeast cultures (16 h old) were used to inoculate 200 µl of fresh media to an initial OD595 of 0.05–0.07, being distributed in 100-well honeycomb plates (Oy Growth Curves) in triplicate per each condition (each different dose of each compound). Plates were then incubated at 28 °C for 72h, with shaking (High force), taking OD measurement each 15 min in the Bioscreen C. Maximum growth rate (μmax) and biomass production (carrying capacity) were determined in R using ‘Growthcurver’ package version 0.3 [24]. Growth curves were constructed in EXCEL, represented as mean ± SEM (standard error of mean). […] In addition, to measure survival after oxidative stress and antioxidant effectiveness of each compound, yeast cells from each challenge were serially diluted in 96-well plates, and each dilution was spotted (with a 8 × 6 stainless steel replica platter from SIGMA) in triplicate to determine viable colonies after 24–48 h at 28 °C. Survivors (mean ± SEM) were compared between treatments with one-way ANOVA, Fisher’s LSD test, with alpha at 0.05 for significance.

[7] = Aqueous thermodynamic solubility in H2O (UV); assay type: physicochemical; details: water, thermodynamic from solid
Description: 4) Log P and aqueous solubility of selected compounds.
Table S2. Theoretical Log P values and aqueous thermodynamic solubility measured for
Comp `Chemical Structure MW LogP Calc Aqueous Solubility a
a Thermodynamic solubility in H 2O (UV). […]

[8] = system: NADPH oxidase activity in human microvascular endothelial cells (HMEC-1); assay: NADPH oxidase activity in endothelial cells stimulated with Angiotensin II; assay type: cell-based; details: HMEC-1, AngII 1 nmol/L 6 h, compound added 30 min before
Protocol: The human microvascular endothelial cells line (HMEC-1) (ATCC®, Middlesex, UK; CRL-3243™) was used. Cells were cultured according to the manufacturer instructions with MCDB131 medium (Corning, NY, USA, Cat. No. 702564) supplemented with 10 ng/mL epidermal growth factor (Sigma-Aldrich, Alcobendas, Spain), 1 μg/mL hydrocortisone (Sigma-Aldrich), 10 mmol/L glutamine (Sigma-Aldrich), 10% fetal bovine serum (FBS, Sigma-Aldrich), 100 U/mL of penicillin and 100 µg/mL of streptomycin. At 80% confluence, cells were serum-deprived for 24 h before stimulation. HMEC were treated with AngII (1 nmol/L for 6 h; Sigma-Aldrich) in the absence or in the presence of the different compounds that were added 30 min before stimulation.
(§1) The O2 production generated by NADPH oxidase was determined by a chemiluminescence assay. Briefly, endothelial cells or aortic segments were homogenized in phosphate buffer (50 mmol/L KH2PO4, 1 mmol/L EGTA, 150 mmol/L sucrose, pH 7.4). The reaction was started by the addition of a lucigenin (5 μmol/L) and NADPH (100 μmol/L; Sigma-Aldrich) mixture to the protein sample in a final volume of 250 μL. Chemiluminescence was determined every 2.4 s for 3 min in a microtiter plate luminometer (Enspire Perkin Elmer). Basal activity in the absence of NADPH was subtracted from each reading and normalized to protein concentration. Data were normalized vs. control situation.

[9] = system: NADPH oxidase activity in segments of aorta from C57BL6/J mice; assay: NADPH oxidase activity in aortic segments stimulated ex vivo with IL-1β; details: IL-1β 10 ng/mL 6 h
Protocol: Aortic segments from three-month-old C57BL6/J mice were incubated with IL-1β (10 ng/mL, 6 h, Sigma Aldrich) in the presence and in the absence of the different compounds that were added 30 min before stimulation.
as §1

[10] = compound needed to reach 50% RSA after 10 min, read-out: DPPH PSA IC50 10 min
[11] = read-out: DPPH PSA IC50 2 h, compound needed to reach 50% RSA after 2 h

Structure (SMILES)	ORAC [1]	ORAC ([1]; TE: Trolox Equivalents)	ABTS [2]	IC50 [3, 10]	RSA percentage [3]	IC50 [3, 11]	stability in aqueous media [4]	Aqueous Stability (%) [4]	IC50 [5]	IC50 ([5]; Homo sapiens, Fibroblast)	solubility [7]	melting point	ABTS (values in text) [2]	concentration down to which RSA ability is maintained independently of time [3]	RSA capacity fold higher compared to resveratrol [3]	effect on NADPH oxidase activity induced by Angiotensin II [8]	effect on NADPH oxidase activity induced by IL-1β [9]	other results
O=C(Cc1ccc(O)cc1O)Nc1ccc(O)cc1 [Compound 8, 2-(2′,4′-Dihydroxyphenyl)-N-(4-hydroxyphenyl)acetamide]	19.3 ± 0.5 µmol of trolox/µmol of pure compound	> 19 TE	5.00 ± 0.09 µmol of trolox/µmol of pure compound	151 µM	67%	64.2 µM	sufficiently stable	98%	> 1400 µM	1410 µM	4100 ± 100 µg/mL (≈ 15.8 mM)	186 to 189 °C						growth rate (r) recovery of stressed yeast ([6]; H2O2-stressed BY4741, doses 2, 20 and 40 μg): dose-related antioxidant effect; carrying capacity (k) recovery of stressed yeast ([6]; H2O2-stressed BY4741, each dose tested): able to recover the carrying capacity of yeast cells similarly as control antioxidants
O=C(Cc1ccc(O)c(O)c1)Nc1ccc(O)cc1 [Compound 7, 2-(3′,4′-Dihydroxyphenyl)-N-(4-hydroxyphenyl)acetamide]	19.2 ± 0.4 µmol of trolox/µmol of pure compound and 19.2 ± 0. µmol of trolox/µmol of pure compound	> 19 TE	8.12 ± 0.09 µmol of trolox/µmol of pure compound	24.1 µM	82%	23.3 µM	sufficiently stable	90%			3100 ± 100 µg/mL (≈ 12 mM)	192 to 194 °C	8.1 TE	0.063 mM	2.8 fold	decreasing NADPH oxidase activity levels in the same order as resveratrol	significant inhibition of the IL-1β effects	cytotoxic effects ([5]; range where soluble in DMSO (up to 6 mM)): did not show any significant cytotoxic effects
O=C(Cc1cc(O)ccc1O)Nc1ccc(O)cc1 [Compound 3, 2-(2′,5′-Dihydroxyphenyl)-N-(4-hydroxyphenyl)acetamide]	19.2 ± 0.2 µmol of trolox/µmol of pure compound	> 19 TE	3.27 ± 0.1 µmol of trolox/µmol of pure compound	8.3 µM	~78%	6.77 µM	sufficiently stable	77%	246 µM and 240 µM	246 µM	1300 ± 100 µg/mL (≈ 5.01 mM)	185 to 187 °C (dec.)	3.2 TE	0.031 mM	8 fold	decreasing NADPH oxidase activity levels in the same order as resveratrol	significant inhibition of the IL-1β effects	RSA ([3]; 0.031 mM, maintained from 10 min to 2 h): 78%; cell viability IC50 fold lower than compounds 17 and 8 [5]: 5–7 fold
